Values after ≈ are worked out from the molar mass of the structure shown. Values joined by “and” are separate entries in the source; they are usually repeats but may differ in a detail not shown here. Identical values can stand only once. “Also recorded” adds a separate entry of the source. Like-named read-outs stand apart in the source and are kept apart here.
Tests used:
Candida species = test: Growth inhibition of a panel of Candida strains; type: cell-based
Procedure: The activity of PGG was tested for growth inhibition against two susceptible strains and 6 drug resistant strains from three Candida species (Table 2). […] The activity of PGG followed a dose-response curve against tested strains. Typically the strains tested had MICs less than 2 μg/mL. Candida glabrata (AR Bank #0335) yielded the highest MIC at 8 μg/mL.

[1] = Lactate dehydrogenase (LDH) cytotoxicity assay; type: cell-based, human; settings: human; HaCaT, LDH assay
Excerpt: (§1) Immortalized human keratinocyte cells (HaCaTs) were used in a lactate dehydrogenase (LDH) assay to assess cytotoxicity by PGG and its parents.

[2] = system: Immortalized human keratinocyte cells (HaCaTs); test: Lactate dehydrogenase (LDH) cytotoxicity assay; type: cell-based; settings: HaCaT IC50 over median IC50 for growth inhibition of A. baumannii
Excerpt: as §1

ESKAPE pathogens = test: Growth inhibition of a panel of ESKAPE pathogens (overall); type: cell-based
Procedure: (§2) PGG was also tested against a panel of other ESKAPE pathogens: Enterococcus faecium, Staphylococcus aureus, Klebsiella pneumoniae, Pseudomonas aeruginosa, and Enterobacter cloacae.

A. baumannii AB5075 = test: Resistance studies (agar plates and 21-day serial passaging); type: cell-based, Acinetobacter baumannii
Procedure: To test for spontaneous development of resistance to PGG, A. baumannii AB5075 was inoculated on agar plates containing PGG at 0.5×MIC, 1×MIC, and 2×MIC (128, 256, and 512 μg/mL, respectively), and a control plate containing no PGG. […] Next, evolution of resistance was tested by serial passaging A. baumannii AB5075 for 21 days in the presence of a PGG gradient, using culture from the 0.5×MIC treatment for each subsequent passage. Serial passaging with a tetracycline gradient served as a control.

Enterobacter cloacae = test: Growth inhibition of ESKAPE pathogens; type: cell-based
Procedure: as §2

Pseudomonas aeruginosa = test: Growth inhibition of ESKAPE pathogens; type: cell-based
Procedure: as §2

Enterococcus faecium = test: Growth inhibition of ESKAPE pathogens; type: cell-based
Procedure: as §2

Staphylococcus aureus = test: Growth inhibition of ESKAPE pathogens; type: cell-based; settings: strain LAC
Procedure: as §2

Klebsiella pneumoniae = test: Growth inhibition of ESKAPE pathogens; type: cell-based
Procedure: as §2

A. baumannii = test: Time-kill assays with and without supplements; type: cell-based, Acinetobacter baumannii
Procedure: PGG antibacterial activity may be attributed to its chelation of iron. One can use a colorimetric assay to quantify binding of free iron by PGG. One can perform bioassays with iron supplementation and 2,2′-dipyridyl, a known iron chelator, as a control. To elucidate potential mechanisms of action of PGG, A. baumannii growth inhibition and time-kill assays were carried out with various supplements in combination with PGG: 0.02% oleic acid, 0.02% polysorbate 80, 1 mM iron (II) sulfate, and 1 mM iron (III) sulfate. […] Furthermore, PGG combined with oleic acid, polysorbate 80, and iron (II) sulfate treatments had roughly tenfold, 100-fold, and 1,000-fold higher CFU/mL measurements, respectively, than PGG alone at the 24 h timepoint.

O=C(OC[C@H]1O[C@@H](OC(=O)c2cc(O)c(O)c(O)c2)[C@H](OC(=O)c2cc(O)c(O)c(O)c2)[C@@H](OC(=O)c2cc(O)c(O)c(O)c2)[C@@H]1OC(=O)c1cc(O)c(O)c(O)c1)c1cc(O)c(O)c(O)c1 [PGG, [(2R,3R,4S,5R,6S)-3,4,5,6-tetrakis[(3,4,5-trihydroxybenzoyl)oxy]oxan-2-yl]methyl 3,4,5-trihydroxybenzoate]
MIC (Candida species; Candida strains tested, read-out: MICs typical of the strains tested): < 2 µg/mL
IC50 (Candida species; two susceptible and 6 drug resistant strains from three Candida species, read-out: IC50 values, range over strains): 0.25 µg/mL to 2 µg/mL and 260 nM to 2.1 µM
IC50 [1]: 256 µg/mL (≈ 272 µM)
therapeutic index [2]: 32
concentrations with activity against a wide range of pathogenic bacteria (ESKAPE pathogens): ≥ 64 µg/mL
evolution of resistance on serial passaging (A. baumannii AB5075; A. baumannii AB5075, 21 daily passages from the 0.5×MIC treatment): did not produce any resistant mutants; also recorded: remained stable; also recorded: did not stimulate any spontaneous resistance
spontaneous development of resistance (colonies on agar plates) (A. baumannii AB5075; A. baumannii AB5075, agar with 128, 256 and 512 μg/mL, 24 h): no colonies appeared
MIC (A. baumannii AB5075; Acinetobacter baumannii, AB5075, read-out: Base MIC): 256 µg/mL (≈ 272 µM)
MIC (Enterobacter cloacae; read-out: PGG MIC): > 256 µg/mL
IC50 (Enterobacter cloacae; strain AR Bank #0032, read-out: PGG IC50): 64 µg/mL (≈ 68 µM)
MIC (Pseudomonas aeruginosa; P. aeruginosa, strain not given, read-out: MIC): 16 µg/mL (≈ 17 µM)
IC50 (Pseudomonas aeruginosa; strain AR Bank #0054, read-out: PGG IC50): 8 µg/mL (≈ 8.5 µM)
MIC (Pseudomonas aeruginosa; strain AR Bank #0054, read-out: PGG MIC): > 64 µg/mL
IC50 (Pseudomonas aeruginosa; strain AR Bank #0064, read-out: PGG IC50): 4 µg/mL (≈ 4.25 µM)
MIC (Pseudomonas aeruginosa; strain AR Bank #0064, read-out: PGG MIC): 16 µg/mL (≈ 17 µM)
IC50 (Pseudomonas aeruginosa; strain AR Bank #0090, read-out: PGG IC50): 4 µg/mL (≈ 4.25 µM)
MIC (Pseudomonas aeruginosa; strain AR Bank #0090, read-out: PGG MIC): > 64 µg/mL
IC50 (Pseudomonas aeruginosa; strain AR Bank #0092, read-out: PGG IC50): 4 µg/mL (≈ 4.25 µM)
MIC (Pseudomonas aeruginosa; strain AR Bank #0092, read-out: PGG MIC): > 64 µg/mL
IC50 (Pseudomonas aeruginosa; strain AR Bank #0094, read-out: PGG IC50): 8 µg/mL (≈ 8.5 µM)
MIC (Pseudomonas aeruginosa; strain AR Bank #0094, read-out: PGG MIC): 64 µg/mL (≈ 68 µM)
IC50 (Pseudomonas aeruginosa; strain AR Bank #0095, read-out: PGG IC50): 8 µg/mL (≈ 8.5 µM)
MIC (Pseudomonas aeruginosa; strain AR Bank #0095, read-out: PGG MIC): 64 µg/mL (≈ 68 µM)
IC50 (Pseudomonas aeruginosa; strain AR Bank #0100, read-out: PGG IC50): 8 µg/mL (≈ 8.5 µM)
MIC (Pseudomonas aeruginosa; strain AR Bank #0100, read-out: PGG MIC): > 64 µg/mL
IC50 (Pseudomonas aeruginosa; strain AR Bank #0103, read-out: PGG IC50): 4 µg/mL (≈ 4.25 µM)
MIC (Pseudomonas aeruginosa; strain AR Bank #0103, read-out: PGG MIC): 64 µg/mL (≈ 68 µM)
IC50 (Pseudomonas aeruginosa; strain AR Bank #0105, read-out: PGG IC50): 32 µg/mL (≈ 34 µM)
MIC (Pseudomonas aeruginosa; strain AR Bank #0105, read-out: PGG MIC): > 64 µg/mL
IC50 (Pseudomonas aeruginosa; strain AR Bank #0108, read-out: PGG IC50): 8 µg/mL (≈ 8.5 µM)
MIC (Pseudomonas aeruginosa; strain AR Bank #0108, read-out: PGG MIC): > 64 µg/mL
IC50 (Pseudomonas aeruginosa; strain AR Bank #0110, read-out: PGG IC50): 4 µg/mL (≈ 4.25 µM)
MIC (Pseudomonas aeruginosa; strain AR Bank #0110, read-out: PGG MIC): 64 µg/mL (≈ 68 µM)
IC50 (Pseudomonas aeruginosa; strain AR Bank #0111, read-out: PGG IC50): 4 µg/mL (≈ 4.25 µM)
MIC (Pseudomonas aeruginosa; strain AR Bank #0111, read-out: PGG MIC): 64 µg/mL (≈ 68 µM)
IC50 (Pseudomonas aeruginosa; strain PA01, read-out: PGG IC50): 8 µg/mL (≈ 8.5 µM)
MIC (Pseudomonas aeruginosa; strain PA01, read-out: PGG MIC): 16 µg/mL (≈ 17 µM)
IC50 (Enterococcus faecium; strain NR-31915, read-out: PGG IC50): 128 µg/mL (≈ 136 µM)
MIC (Enterococcus faecium; strain NR-31915, read-out: PGG MIC): > 256 µg/mL
IC50 (Staphylococcus aureus; read-out: PGG IC50): 16 µg/mL (≈ 17 µM)
MIC (Staphylococcus aureus; read-out: PGG MIC): 64 µg/mL (≈ 68 µM)
MIC (Klebsiella pneumoniae; read-out: PGG MIC): 256 µg/mL (≈ 272 µM)
IC50 (Klebsiella pneumoniae; strain NR-15410, read-out: PGG IC50): 8 µg/mL (≈ 8.5 µM)
kind of activity in time-kill (CFU/mL curve) (A. baumannii; PGG alone, 256 μg/mL): bacteriostatic rather than bactericidal
CFU/mL relative to PGG alone (A. baumannii; PGG combined with iron (II) sulfate, 24 h timepoint): ~1,000 fold
CFU/mL relative to PGG alone (A. baumannii; PGG combined with oleic acid, 24 h timepoint): roughly tenfold
CFU/mL relative to PGG alone (A. baumannii; PGG combined with polysorbate 80, 24 h timepoint): ~100 fold

From patent US20260272964A1, “PENTAGALLOYL GLUCOSE DERIVED FROM SCHINUS PLANTS AND METHODS OF USE” (Emory University, priority 2020, published 2026)
